Eight compounds from patent EP0395672B1, “ANTIVIRAL APPLICATION OF ALPHA OLIGONUCLEOTIDES” (CENTRE NATIONAL DE LA RECHERCHE SCIENTIFIQUE, priority 1987, dated 1989) can be followed below.

One assay relates to CEM. The assay is described as follows: inhibition of tumour cell proliferation. In kind it is cell-based, humaine. To be noted: Homo sapiens, CCRF-CEM, mean of at least two experiments, read-out: ID50 (dose d'inhibition du développement cellulaire de 50 %).
The next assay concerns MT4. Description: inhibition of tumour cell proliferation. In kind it is cell-based, humaine. To be noted: Homo sapiens, mean of at least two experiments, read-out: ID50 (dose d'inhibition du développement cellulaire de 50 %).
Another assay relates to MOLT/4F. The assay is described as follows: inhibition of tumour cell proliferation. To be noted: Homo sapiens, mean of at least two experiments, read-out: ID50 (dose d'inhibition du développement cellulaire de 50 %). In kind it is cell-based, humaine.
Another assay deals with L1210/BdUrd. The assay is described as follows: inhibition of tumour cell proliferation. It counts as cell-based, murine. To be noted: Mus musculus; L1210/BdUrd (résistant à BdUrd); mean of at least two experiments; read-out: ID50 (dose d'inhibition du développement cellulaire de 50 %).
A further assay concerns L1210/0. Description: inhibition of tumour cell proliferation. In kind it is cell-based, murine. To be noted: Mus musculus, mean of at least two experiments, read-out: ID50 (dose d'inhibition du développement cellulaire de 50 %).
Assay [1] has as its target T1, réverse transcriptase de HIV1 (Human immunodeficiency virus type 1 group M subtype B, UniProt P03366).
T1 construct: La réverse transcriptase de HIV1 ci-après abrégé RT a été partiellement purifiée; endogenous in cells; host or cells: HUT-78/HTLV-IIIb producer cell line; virus particles pelleted at 100,000 g and solubilised with Triton X-100
The assay is described as follows: inhibition of exogenous reverse transcription, poly(A) template with oligo(dT)12-18 primer (Example 2). In kind it is biochemical. The text has this: Dans les exemples qui vont suivre les α oligodésoxynucléotides α-dT, α-dT₂, α-dT₄, α-dT₆, α-dT₈, α-dT₁₀, α-dT₁₂, α-dT₁₄, α-dT₁₆ ont été dissous dans de l'eau stérilisée pour les essais de réverse transcriptase. Les concentrations ont été déterminées par spectrophotométrie (coefficient d'absorption molaire : 8880, 17760, 35520, 61800, 70000, 83300, 88800, 109800 et 138400, respectivement). Les α oligodésoxynucléotides α-dC₂₀ et α-dC₃₀ ont été dissous dans de l'eau distillée et les concentrations ont été déterminées également par spectrophotométrie (coefficient d'absorption molaire 178000 et 267000, respectivement). Les solutions étaient conservées à -20° C jusqu'à leur utilisation.
Les réactions de transcription inverse ont été effectuées avec des virus HIV dont partiellement purifiées. Les fluides de culture provenant d'une lignée cellulaire produisant un HUT-78/HTLV-IIIb ont été purifiés par centrifugation à basse vitesse. Des particules virales ont été sédimentées par centrifugation à 100.000 g pendant 30 minutes. Le Pellet viral a été incubé sur glace pendant 30 minutes avec un tampon de solubilisation contenant du triton X-100 0,1 % du dithiothréitol 1mM et du glycérol 50 % et conservé dans des aliquots à -70°C jusqu'à utilisation. Les effets inhibiteurs des α oligodésoxynucléotides contenant des bases thymine sur la réaction de transcription inverse ont été effectués avec une matrice polyrA exogène et un α oligodT₁₂₋₁₈ . Le mélange de réaction (50 µl) contenait du Tris-HCl 50 mM (pH 7,8), du dithiothréitol 5mM, du glutathione 300 µM, du EGTA 500 µM et du KCl 150 mM, du MgCl₂ 5 mM, et 1,25 µg de sérum albumine de bovin, et 1 µM de (méthyl-³H) dTTP (radioactivité spécifique 30 Ci/mmol.) (5 µCi), le mélange comportait également 4,4 µg/ml de polyrA, 7,5 µM d'oligodT et du triton X-100 0,03 %, et 10 µl de solution de composé,(contenant des concentrations variables des composés) et 10 µl de préparation de réverse transcriptase. Les effets inhibiteurs sur la transcription de HIV à l'aide de α-dC₂₀ et α-dC₃₀ ont été déterminés en utilisant une matrice exogène polyI (50 µg/ml) tandis que le mélange oligodC₁₂₋₁₈ servait d'amorce (0,44 U/ml). Le mélange de réaction avec le système polyI.oligodC contenait des réactifs décrits pour le système polyrA. oligodT mais les concentrations de MgCl et KCI ont été ajustées à 2,5 mM et […], respectivement, tandis que le dTTP trifié a été substitué par le (méthyl-³H)dCTP (radioactivité spécifique 19,5 Ci/mmol) (5 µCi). Les mélanges de réactions ont été incubés à 37°C pendant 0 à 60 minutes à quel moment 100 µl d'ADN de thymus de veau (150 µg/ml), 2 ml de Na₄P₂O₇ (0,1 M dans HCL 1 N) et 2 ml de TCA (10 % v/v) ont été ajoutés. Les solutions ont été gardées sur glace pendant au moins 30 minutes, après lesquelles la matière acide insoluble a été lavée et analysée quant à sa radioactivité.
La réverse transcriptase de HIV1 ci-après abrégé RT a été partiellement purifiée et les oligomères α ont été étudiés en fonction de leur faculté à servir d'amorce sur une matrice poly(A) dans une réaction de transcription inverse exogène.
Ces pourcentages ont été calculés de la même manière que précédemment par mesure de radioactivité, laquelle indique la quantité d'incorporation de méthyl ³H dTTP (valeurs en Cpm).

SMILES strings stand for the structures.

As to `Nc1ncnc2c1ncn2[C@@H]1C[C@H](O)[C@@H](CO)O1` [α-2'-dAdo], the IC50 with CEM, in the assay on MT4, in the assay on MOLT/4F, in the assay with L1210/BdUrd and with L1210/0 was > 500 µM each time.
For `Nc1ccn([C@@H]2C[C@H](O)[C@@H](CO)O2)c(=O)n1` [α-2'-dC], the IC50 in the assay with CEM, with MT4, with MOLT/4F, in the assay with L1210/BdUrd and in the assay on L1210/0 was > 500 µM throughout.
Consider `Nc1nc2c(ncn2[C@@H]2C[C@H](O)[C@@H](CO)O2)c(=O)[nH]1` [α-2'-dGuo], for which the IC50 in the assay on CEM, in the assay on MT4, with MOLT/4F, with L1210/BdUrd and in the assay with L1210/0 was > 500 µM each time.
`Cc1cn([C@@H]2C[C@H](O)[C@@H](CO)O2)c(=O)[nH]c1=O` [α-2'-dThd]: the IC50 in the assay with CEM, in the assay on MT4, with MOLT/4F, in the assay on L1210/BdUrd and with L1210/0 was > 500 µM each time.
Take `Cc1cn([C@@H]2C[C@H](O)[C@@H](CO)O2)c(=O)[nH]c1=O` [αdT]: the “pourcentages d'inhibitions de la réaction exogène de transcription inverse” value in assay [1] (0.16 uM oligomer, 7,5 μM oligo(dT)12-18 primer) is on record as 22%; in assay [1] (0.8 uM oligomer, 7,5 μM oligo(dT)12-18 primer) it was 8%; in assay [1] (4 uM oligomer, 7,5 μM oligo(dT)12-18 primer), 19%; in assay [1] (20 uM oligomer, 7,5 μM oligo(dT)12-18 primer), 46%; in assay [1] (100 uM oligomer, 7,5 μM oligo(dT)12-18 primer), 23%. Besides, in assay [1] (7,5 μM oligo(dT)12-18 primer, poly(A) template, read-out: ED50 (dose requise pour inhiber la réaction de transcription inverse de 50 %)), the EC50 was > 100 µM. Also, the “inhibition de la réaction de transcription inverse” value in assay [1] (result in words, in presence of primer βdT₁₂₋₁₈) is reported as “aucune inhibition significative”.
`Nc1ncnc2c1ncn2[C@H]1C[C@H](O)[C@@H](CO)O1` [β dAdo, reference compound]: the IC50 was 189 ± 19 µM in the assay on CEM; > 500 µM in the assay with MT4; > 500 µM with MOLT/4F; > 500 µM with L1210/BdUrd; > 500 µM in the assay on L1210/0.
`Nc1nc2c(ncn2[C@H]2C[C@H](O)[C@@H](CO)O2)c(=O)[nH]1` [β dGuo, reference compound]: the IC50 stood at 22.1 ± 0.6 µM with CEM; 55.3 ± 5.3 µM with MT4; 79.5 ± 9.2 µM in the assay with MOLT/4F; 55.5 ± 6.8 µM with L1210/BdUrd; 58.2 ± 10.9 µM with L1210/0.
For `Cc1cn([C@H]2C[C@H](O)[C@@H](CO)O2)c(=O)[nH]c1=O` [β dThd, reference compound], in that order: 24.7 ± 3.42 µM, 191 ± 7 µM, > 500 µM, > 500 µM and 29 ± 1.9 µM.
